Read-outs that look alike come from different tables or passages of the source.
Test system: IL-10 production by OvA-stimulated splenocytes
Assay: OvA-stimulated production of IL-10 by splenocytes of OvA-immunized mice
Settings: for activity at 0.01 mg/kg: Mus musculus, Splenocyte, po, read-out: Production of IL-10 by splenocytes, % (% of control), OvA/FA
[1] = OvA/Alum, 0.1 μg/kg i/p, OvA 10 μg/ml
[2] = OvA/Alum, 0.1 μg/kg i/p, OvA 25 μg/ml
[3] = OvA/Alum, 0.1 μg/kg i/p, OvA 50 μg/ml
[4] = OvA/Alum, 0.1 μg/kg i/p, OvA 100 μg/ml
[5] = OvA/Alum, 1.0 μg/kg i/p, OvA 10 μg/ml
[6] = OvA/Alum, 1.0 μg/kg i/p, OvA 25 μg/ml
[7] = OvA/Alum, 1.0 μg/kg i/p, OvA 50 μg/ml
[8] = OvA/Alum, 1.0 μg/kg i/p, OvA 100 μg/ml
[9] = OvA/FA, 0.1 μg/kg i/p, OvA 10 μg/ml
[10] = OvA/FA, 0.1 μg/kg i/p, OvA 25 μg/ml
[11] = OvA/FA, 0.1 μg/kg i/p, OvA 50 μg/ml
[12] = OvA/FA, 0.1 μg/kg i/p, OvA 100 μg/ml
[13] = OvA/FA, 1.0 μg/kg i/p, OvA 10 μg/ml
[14] = OvA/FA, 1.0 μg/kg i/p, OvA 25 μg/ml
[15] = OvA/FA, 1.0 μg/kg i/p, OvA 50 μg/ml
[16] = OvA/FA, 1.0 μg/kg i/p, OvA 100 μg/ml

Description: The OvA was administered subcutaneously to the crest in a volume of 200 μl. Mice were immunized on day 1 with OvA in complete Freund's adjuvant (CFA; Sigma) and on day 15 with the antigen in incomplete Freund's adjuvant (IFA; Sigma). The immune response was analyzed on day 29. Mice were also immunized with 10 μg/mouse of OvA using Alum as an adjuvant.
Thymuses and spleens from mice of each treatment group were pooled, and then minced with scissors. The minced tissues were suspended in sterile PBS to form cell suspensions, filtered through a double gauze layer and centrifuged. Cells were washed twice with PBS, re-suspended in RPMI-1640 (Sigma) with 2.0 mM of L-glutamine, 50 μM of mercaptoethanol, and 10 μg/ml of gentamycin (complete medium); and cell counts were made. (The splenocyte suspension was washed with a 0.86% solution of NH4Cl to pre-lyse erthrocytes.)
Assessment of Mitogen- and Antigen-Induced Production of Cytokines: Thymic cells (1×10^6/well) in complete medium with 2% FCS were stimulated with ConA (0, 1, and 2 μg/ml). Splenocytes (1×10^6/well) in complete medium with 5% FCS were stimulated with ConA (0, 1, and 5 μg/ml) and with OvA (0-100 μg/ml). […] Supernatants from OvA-stimulated cultures were collected after 72 hours. Supernatants from both cultures were frozen, and kept at 20° C. Concentrations of IL-2, IL-4, IL-10, IL-12R40 and IFNγ in the supernatants were determined by solid-phase EIA with EIA Expansion Kits, available from BD Biosciences (formerly Pharmingen), in accordance with the manufacturer's instructions.

N[C@H](CCC(=O)N[C@@H](Cc1c[nH]c2ccccc12)C(=O)O)C(=O)O [SCV-07, γ-D-glutamyl-L-tryptophan]
activity at 0.01 mg/kg (10.0 μg/kg per os, OvA 25 μg/ml): 174% | activity at 0.01 mg/kg (10.0 μg/kg per os, OvA 50 μg/ml): 216% | activity at 0.01 mg/kg (10.0 μg/kg per os, OvA 100 μg/ml): 250% | Production of IL-10 by splenocytes (OvA/Alum, 0.1 μg/kg i/p, OvA 0 μg/ml): 2177.8 pg/mL | Production of IL-10 by splenocytes [1]: 1762.5 pg/mL | Production of IL-10 by splenocytes, % (% of control) [1]: 80.9% | Production of IL-10 by splenocytes [2]: 1946.1 pg/mL | Production of IL-10 by splenocytes, % (% of control) [2]: 89.4% | Production of IL-10 by splenocytes [3]: 1851.3 pg/mL | Production of IL-10 by splenocytes, % (% of control) [3]: 85.0% | Production of IL-10 by splenocytes [4]: 2189.5 pg/mL | Production of IL-10 by splenocytes, % (% of control) [4]: 100.5% | Production of IL-10 by splenocytes (OvA/Alum, 0.1 μg/kg per os, OvA 0 μg/ml): 1351.1 pg/mL | Production of IL-10 by splenocytes (OvA/Alum, 0.1 μg/kg per os, OvA 10 μg/ml): 1587.9 pg/mL | Production of IL-10 by splenocytes (OvA/Alum, 0.1 μg/kg per os, OvA 25 μg/ml): 1419.5 pg/mL | Production of IL-10 by splenocytes (OvA/Alum, 0.1 μg/kg per os, OvA 50 μg/ml): 1783.6 pg/mL | Production of IL-10 by splenocytes (OvA/Alum, 0.1 μg/kg per os, OvA 100 μg/ml): 1741.5 pg/mL | Production of IL-10 by splenocytes (OvA/Alum, 1.0 μg/kg i/p, OvA 0 μg/ml): 2035.7 pg/mL | Production of IL-10 by splenocytes [5]: 1758.9 pg/mL | Production of IL-10 by splenocytes, % (% of control) [5]: 86.4% | Production of IL-10 by splenocytes [6]: 1829.8 pg/mL | Production of IL-10 by splenocytes, % (% of control) [6]: 89.9% | Production of IL-10 by splenocytes [7]: 1584.7 pg/mL | Production of IL-10 by splenocytes, % (% of control) [7]: 77.8% | Production of IL-10 by splenocytes [8]: 1840.7 pg/mL | Production of IL-10 by splenocytes, % (% of control) [8]: 90.4% | Production of IL-10 by splenocytes (OvA/Alum, 1.0 μg/kg per os, OvA 0 μg/ml): 1741.5 pg/mL | Production of IL-10 by splenocytes (OvA/Alum, 1.0 μg/kg per os, OvA 10 μg/ml): 2220.9 pg/mL | Production of IL-10 by splenocytes (OvA/Alum, 1.0 μg/kg per os, OvA 25 μg/ml): 1957.2 pg/mL | Production of IL-10 by splenocytes (OvA/Alum, 1.0 μg/kg per os, OvA 50 μg/ml): 1920.4 pg/mL | Production of IL-10 by splenocytes (OvA/Alum, 1.0 μg/kg per os, OvA 100 μg/ml): 1898.4 pg/mL | Production of IL-10 by splenocytes (OvA/Alum, 10.0 μg/kg per os, OvA 0 μg/ml): 816.4 pg/mL | Production of IL-10 by splenocytes (OvA/Alum, 10.0 μg/kg per os, OvA 10 μg/ml): 1127.5 pg/mL | Production of IL-10 by splenocytes (OvA/Alum, 10.0 μg/kg per os, OvA 25 μg/ml): 1272.5 pg/mL | Production of IL-10 by splenocytes (OvA/Alum, 10.0 μg/kg per os, OvA 50 μg/ml): 1608.4 pg/mL | Production of IL-10 by splenocytes (OvA/Alum, 10.0 μg/kg per os, OvA 100 μg/ml): 1780.1 pg/mL | Production of IL-10 by splenocytes (OvA/FA, 0.1 μg/kg i/p, OvA 0 μg/ml): 785.1 pg/mL | Production of IL-10 by splenocytes [9]: 989.4 pg/mL | Production of IL-10 by splenocytes, % (% of control) [9]: 126.0% | Production of IL-10 by splenocytes [10]: 1234.3 pg/mL | Production of IL-10 by splenocytes, % (% of control) [10]: 157.2% | Production of IL-10 by splenocytes [11]: 1194.2 pg/mL | Production of IL-10 by splenocytes, % (% of control) [11]: 152.1% | Production of IL-10 by splenocytes [12]: 1502.4 pg/mL | Production of IL-10 by splenocytes, % (% of control) [12]: 191.4% | Production of IL-10 by splenocytes (OvA/FA, 0.1 μg/kg per os, OvA 0 μg/ml): 702.5 pg/mL | Production of IL-10 by splenocytes (OvA/FA, 0.1 μg/kg per os, OvA 10 μg/ml): 958.9 pg/mL | Production of IL-10 by splenocytes (OvA/FA, 0.1 μg/kg per os, OvA 25 μg/ml): 1478.2 pg/mL | Production of IL-10 by splenocytes (OvA/FA, 0.1 μg/kg per os, OvA 50 μg/ml): 1739.2 pg/mL | Production of IL-10 by splenocytes (OvA/FA, 0.1 μg/kg per os, OvA 100 μg/ml): 1895.4 pg/mL | Production of IL-10 by splenocytes (OvA/FA, 1.0 μg/kg i/p, OvA 0 μg/ml): 457.4 pg/mL | Production of IL-10 by splenocytes [13]: 813.4 pg/mL | Production of IL-10 by splenocytes, % (% of control) [13]: 177.8% | Production of IL-10 by splenocytes [14]: 774.1 pg/mL | Production of IL-10 by splenocytes, % (% of control) [14]: 169.2% | Production of IL-10 by splenocytes [15]: 852.4 pg/mL | Production of IL-10 by splenocytes, % (% of control) [15]: 186.4% | Production of IL-10 by splenocytes [16]: 963.8 pg/mL | Production of IL-10 by splenocytes, % (% of control) [16]: 210.7% | Production of IL-10 by splenocytes (OvA/FA, 1.0 μg/kg per os, OvA 0 μg/ml): 407.6 pg/mL | Production of IL-10 by splenocytes (OvA/FA, 1.0 μg/kg per os, OvA 10 μg/ml): 953.1 pg/mL | Production of IL-10 by splenocytes (OvA/FA, 1.0 μg/kg per os, OvA 25 μg/ml): 984.1 pg/mL | Production of IL-10 by splenocytes (OvA/FA, 1.0 μg/kg per os, OvA 50 μg/ml): 1120.7 pg/mL | Production of IL-10 by splenocytes (OvA/FA, 1.0 μg/kg per os, OvA 100 μg/ml): 1292.2 pg/mL | Production of IL-10 by splenocytes (OvA/FA, 10.0 μg/kg per os, OvA 0 μg/ml): 627.3 pg/mL | Production of IL-10 by splenocytes (OvA/FA, 10.0 μg/kg per os, OvA 10 μg/ml): 831.6 pg/mL | Production of IL-10 by splenocytes (OvA/FA, 10.0 μg/kg per os, OvA 25 μg/ml): 1092.7 pg/mL | Production of IL-10 by splenocytes (OvA/FA, 10.0 μg/kg per os, OvA 50 μg/ml): 1356.1 pg/mL | Production of IL-10 by splenocytes (OvA/FA, 10.0 μg/kg per os, OvA 100 μg/ml): 1569.3 pg/mL

Source: patent US20090074815A1, “Immunomodulator Compounds as Vaccine Enhancers” (SCICLONE PHARMACEUTICALS, INC., priority 2005, published 2009)
